Reference: patent US8466176B2 (priority 2008, dated 2013)

Test: logP(HCOOH) reported with HPLC/MS
Conditions: HCOOH (formic acid), logP(HCOOH), HPLC/MS

SMILES | chromatographic logP
COc1ccc(CON=C(c2ccccc2)c2nnnn2C)nc1Br [Example 125, N-[(6-bromo-5-methoxypyridin-2-yl)methoxy]-1-(1-methyl-1H-tetrazol-5-yl)-1-phenylmethanimine] | 3.13
Cn1nnnc1C(=NOCc1cccc(N(CCC2CCCCC2)C(=O)OC(C)(C)C)n1)c1ccccc1 [Example 141, tert-butyl (2-cyclohexylethyl){6-[({[(1-methyl-1H-tetrazol-5-yl)(phenyl)methylene]amino}oxy)methyl]pyridin-2-yl}carbamate] | 6.56

Same assay, conditions: HPLC, logP(HCOOH), HPLC/MS

SMILES | chromatographic logP
Cc1nnnn1C(=NOCc1csc(Br)n1)c1ccccc1 [Example 145, N-[(2-bromo-1,3-thiazol-4-yl)methoxy]-1-(5-methyl-1H-tetrazol-1-yl)-1-phenylmethanimine] | 3.15

Same assay, conditions: formic acid (HCOOH), logP(HCOOH), HPLC/MS

SMILES | chromatographic logP
Cn1nnnc1C(=NOCc1csc(NCCC2CCCCC2)n1)c1ccccc1 [Example 161, N-(2-cyclohexylethyl)-4-[({[(1-methyl-1H-tetrazol-5-yl)(phenyl)methylene]amino}oxy)methyl]-1,3-thiazol-2-amine] | 3.62

Same assay, conditions: logP(HCOOH), HPLC/MS

SMILES | chromatographic logP
Cc1nnnn1C(=NOCc1csc(C#CC2CC2)n1)c1ccccc1 [Example 159] | 3.65
Cn1nnnc1C(=NOCc1cccc(C=O)n1)c1ccccc1 [Example 174, 6-[({[(1-methyl-1H-tetrazol-5-yl)(phenyl)methylene]amino}oxy)methyl]pyridine-2-carbaldehyde] | 2.54

Same assay, conditions: method [a]: HPLC on reversed phase columns, pH 2.3 with 0.1% phosphoric acid and acetonitrile as eluent

SMILES | log p
COC=CC#Cc1nc(CON=C(c2ccccc2)c2nnnn2C)cs1 [Example 136] | 3.06^[a]
CC(=O)OCCCC#Cc1nc(CON=C(c2ccccc2)c2nnnn2C)cs1 [Example 137] | 3.17^[a]
Cn1nnnc1C(=NOCc1csc(C#C[Si](C)(C)C)n1)c1ccccc1 [Example 138] | 4.59^[a]
C#Cc1nc(CON=C(c2ccccc2)c2nnnn2C)cs1 [Example 139] | 2.77^[a]
Cn1nnnc1C(=NOCc1cccc(N(CCC2CC(F)(F)C2(F)F)C(=O)OC(C)(C)C)n1)c1ccccc1 (stereo not drawn) [Example 140] | 5.05^[a]
Cn1nnnc1C(=NOCc1cccc(N(CC2CC2)C(=O)OC(C)(C)C)n1)c1ccccc1 [Example 142] | 4.7^[a]
Cn1nnnc1C(=NOCc1cccc(NCCC2CC(F)(F)C2(F)F)n1)c1ccccc1 (stereo not drawn) [Example 143] | 2.51^[a]
Cn1nnnc1C(=NOCc1cccc(NCC2CC2)n1)c1ccccc1 [Example 144] | 1.75^[a]
Cn1nnnc1C(=NOCc1cccc(NC/C=C/C#CC(C)(C)C)n1)c1ccccc1 [Example 158] | 3.25^[a]

Same assay, conditions: method [b]: LC-MS at pH 2.7, 0.1% formic acid in water and acetonitrile, linear gradient 10% to 95% acetonitrile

SMILES | log p
CCCCC#Cc1nc(CON=C(c2ccccc2)c2nnnn2C)c(Cl)s1 [Example 117] | 5.22^[b]
CC(C)CCC#Cc1nc(CON=C(c2ccccc2)c2nnnn2C)c(Cl)s1 [Example 118] | 5.59^[b]
Cn1nnnc1C(=NOCc1nc(C#CCOc2ccccc2)sc1Cl)c1ccccc1 [Example 119] | 4.62^[b]
Cn1nnnc1C(=NOCc1nc(C#CC2CCCCC2)sc1Cl)c1ccccc1 [Example 120] | 5.75^[b]
Cn1nnnc1C(=NOCc1nc(C#CCCCCl)sc1Cl)c1ccccc1 [Example 121] | 4.51^[b]
Cn1nnnc1C(=NOCc1nc(C#CCCCC#N)sc1Cl)c1ccccc1 [Example 122] | 3.58^[b]
Cn1nnnc1C(=NOCc1nc(C#CCCCc2ccccc2)sc1Cl)c1ccccc1 [Example 123] | 5.56^[b]
Cn1nnnc1C(=NOCc1cccc(C#CC2=CCCCC2)n1)c1ccccc1 [Example 124] | 4.34^[b]
CCCCC#Cc1nc(CON=C(c2ccccc2)c2nnnn2C)ccc1OC [Example 127] | 3.96^[b]
COc1ccc(CON=C(c2ccccc2)c2nnnn2C)nc1C#CCC1CCCC1 [Example 128] | 4.46^[b]
COc1ccc(CON=C(c2ccccc2)c2nnnn2C)nc1C#CCC1CCCCC1 [Example 129] | 4.84^[b]
COc1ccc(CON=C(c2ccccc2)c2nnnn2C)nc1C#CCCCc1ccccc1 [Example 130] | 4.44^[b]
COc1ccc(CON=C(c2ccccc2)c2nnnn2C)nc1C#CCOc1ccccc1 [Example 131] | 3.8^[b]

Same assay, conditions: method [b]: LC-MS, pH 2.7 with 0.1% formic acid in water and acetonitrile (0.1% formic acid), linear gradient 10% to 95% acetonitrile

SMILES | log p
COc1ccc(CON=C(c2ccccc2)c2nnnn2C)nc1C#CC1CCCCC1 [Example 132] | 4.44^[b]
COc1ccc(CON=C(c2ccccc2)c2nnnn2C)nc1C#CC(C)(C)C [Example 133] | 3.92^[b]
CCc1ccc(C#Cc2nc(CON=C(c3ccccc3)c3nnnn3C)ccc2OC)cc1 [Example 134] | 4.56^[b]
COc1ccc(CON=C(c2ccccc2)c2nnnn2C)nc1C#CCCCC#N [Example 135] | 2.82^[b]
Cn1nnnc1C(=NOCc1csc(Br)n1)c1cccc(F)c1 [Example 146] | 3.23^[b]
Cn1nnnc1C(=NOCc1csc(C#CCC2CCCCC2)n1)c1cccc(F)c1 [Example 147] | 5.42^[b]
Cn1nnnc1C(=NOCc1csc(C#CC2CC2)n1)c1cccc(F)c1 [Example 148] | 3.71^[b]
CCCCC#Cc1nc(CON=C(c2cccc(F)c2)c2nnnn2C)cs1 [Example 149] | 4.51^[b]
Cn1nnnc1C(=NOCc1csc(C#CCCCc2ccccc2)n1)c1cccc(F)c1 [Example 150] | 4.89^[b]
CCCC#Cc1nc(CON=C(c2cccc(F)c2)c2nnnn2C)cs1 [Example 151] | 4.09^[b]
CCCCCC#Cc1nc(CON=C(c2cccc(F)c2)c2nnnn2C)cs1 [Example 152] | 4.94^[b]
Cn1nnnc1C(=NOCc1csc(C#CCC2CCCC2)n1)c1cccc(F)c1 [Example 153] | 5.03^[b]
Cn1nnnc1C(=NOCc1csc(C#CCCCC#N)n1)c1cccc(F)c1 [Example 154] | 3.09^[b]
Cn1nnnc1C(=NOCc1csc(C#CCCc2ccccc2)n1)c1cccc(F)c1 [Example 156] | 4.49^[b]
C#Cc1nc(CON=C(c2cccc(F)c2)c2nnnn2C)cs1 [Example 157] | 2.88^[b]
Cn1nnnc1C(=NOCc1csc(NCC2CC2)n1)c1ccccc1 [Example 162] | 2.26^[b]
CCCCC#Cc1nc(CON=C(c2ccccc2)n2nnnc2C)cs1 [Example 164] | 4.49^[b]
CCCC#Cc1nc(CON=C(c2ccccc2)n2nnnc2C)cs1 [Example 165] | 4.04^[b]
Cc1nnnn1C(=NOCc1csc(C#CCCCc2ccccc2)n1)c1ccccc1 [Example 166] | 4.84^[b]
CCCCCC#Cc1nc(CON=C(c2ccccc2)n2nnnc2C)cs1 [Example 167] | 4.92^[b]
Cc1nnnn1C(=NOCc1csc(C#CCCc2ccccc2)n1)c1ccccc1 [Example 168] | 4.44^[b]
Cc1nnnn1C(=NOCc1csc(C#CCC2CCCCC2)n1)c1ccccc1 [Example 169] | 5.41^[b]
Cc1nnnn1C(=NOCc1csc(C#CCC2CCCC2)n1)c1ccccc1 [Example 170] | 4.97^[b]
Cc1nnnn1C(=NOCc1csc(C#CCCCC#N)n1)c1ccccc1 [Example 171] | 3.02^[b]

Same assay, conditions: method [c]: LC-MS, pH 7.8 with 0.001 molar ammonium hydrogen carbonate solution in water, linear gradient 10% to 95% acetonitrile

SMILES | log p
CCCCC1COC(c2cccc(CON=C(c3ccccc3)c3nnnn3C)n2)O1 (stereo not drawn) [Example 172] | 4.34^[c]
Cn1nnnc1C(=NOCc1cccc(C2OCC(COCc3ccccc3)O2)n1)c1ccccc1 (stereo not drawn) [Example 173] | 3.89^[c]

Same assay, conditions: reversed phase HPLC column, pH 2.7, log p, method [b]: LC-MS at pH 2.7, 0.1% formic acid in water and acetonitrile, linear gradient 10% to 95% acetonitrile

SMILES | chromatographic logP
COc1ccc(CON=C(c2ccccc2)c2nnnn2C)nc1Br [Example 125, N-[(6-bromo-5-methoxypyridin-2-yl)methoxy]-1-(1-methyl-1H-tetrazol-5-yl)-1-phenylmethanimine] | 3.13

Same assay, conditions: reversed phase HPLC column, pH 2.7, log p, method [b]: LC-MS, pH 2.7 with 0.1% formic acid in water and acetonitrile (0.1% formic acid), linear gradient 10% to 95% acetonitrile

SMILES | chromatographic logP
Cc1nnnn1C(=NOCc1csc(Br)n1)c1ccccc1 [Example 145, N-[(2-bromo-1,3-thiazol-4-yl)methoxy]-1-(5-methyl-1H-tetrazol-1-yl)-1-phenylmethanimine] | 3.15
Cc1nnnn1C(=NOCc1csc(C#CC2CC2)n1)c1ccccc1 [Example 159] | 3.65
Cn1nnnc1C(=NOCc1csc(NCCC2CCCCC2)n1)c1ccccc1 [Example 161, N-(2-cyclohexylethyl)-4-[({[(1-methyl-1H-tetrazol-5-yl)(phenyl)methylene]amino}oxy)methyl]-1,3-thiazol-2-amine] | 3.62

Same assay, conditions: reversed phase HPLC columns, pH 2.3, log p, method [a]: HPLC on reversed phase columns, pH 2.3 with 0.1% phosphoric acid and acetonitrile as eluent

SMILES | chromatographic logP
Cn1nnnc1C(=NOCc1cccc(N(CCC2CCCCC2)C(=O)OC(C)(C)C)n1)c1ccccc1 [Example 141, tert-butyl (2-cyclohexylethyl){6-[({[(1-methyl-1H-tetrazol-5-yl)(phenyl)methylene]amino}oxy)methyl]pyridin-2-yl}carbamate] | 6.56
Cn1nnnc1C(=NOCc1cccc(C=O)n1)c1ccccc1 [Example 174, 6-[({[(1-methyl-1H-tetrazol-5-yl)(phenyl)methylene]amino}oxy)methyl]pyridine-2-carbaldehyde] | 2.54
